{"source": "patent US10092534B2", "about": "“Composition for treating headaches” (BIOHIT OYJ, priority 2012, dated 2018)", "key": {"acetaldehyde from saliva": {"test_system": "acetaldehyde from saliva", "experiment": "Elimination of acetaldehyde from saliva during smoking by a cysteine lozenge (FIG. 3)", "assay_type": "in vivo, human", "conditions": "lozenge containing 5 mg"}, "[1]": {"test_system": "acetaldehyde in the saliva", "experiment": "Salivary acetaldehyde during smoking while sucking L-cysteine tablets (gas chromatography of saliva samples)", "assay_type": "in vivo, human", "conditions": "for average salivary acetaldehyde contents immediately after smoking: five smokers, one cigarette in 5 minutes, placebo 191.2±48.5 μM", "method": "Five smokers (of the age of 29±2.8) participated in a study, in which […] were smoked (with cleaning periods in between). While smoking each cigarette (in 5 minutes time), the voluntaries sucked tablets blindfold, containing a placebo, 1.25 mg, 2.5 mg, 5 mg, 10 mg or 20 mg of L-cysteine. The acetaldehyde in the saliva samples was analysed by gas chromatography after 0, 5, 10, 20 minutes from starting to smoke."}}, "data": [{"smiles": "N[C@@H](CS)C(=O)O", "note": "[L-cysteine]", "values": [{"measurement": "elimination of acetaldehyde from saliva during smoking", "setting": "acetaldehyde from saliva", "result": "totally eliminates acetaldehyde"}, {"measurement": "average salivary acetaldehyde contents immediately after smoking", "setting": "[1]; 5 mg L-cysteine sucking tablet", "result": 0, "unit": "µM"}, {"measurement": "inactivation of acetaldehyde in the saliva during smoking", "setting": "[1]; 5 mg of L-cysteine delivered with a melting tablet", "result": "completely inactivated"}, {"measurement": "average salivary acetaldehyde contents immediately after smoking", "setting": "[1]; 10 mg L-cysteine sucking tablet", "result": 0, "unit": "µM"}, {"measurement": "average salivary acetaldehyde contents immediately after smoking", "setting": "[1]; 20 mg L-cysteine sucking tablet", "result": 0, "unit": "µM"}, {"measurement": "reduction of the amount of acetaldehyde compared with the placebo", "setting": "[1]; L-cysteine tablet of 1.25 mg, saliva, during smoking", "result": "about two thirds"}, {"measurement": "removal of acetaldehyde originating from tobacco from the saliva", "setting": "[1]; L-cysteine tablets 5 mg, 10 and 20 mg, during smoking, FIG. 1", "result": "removed from the saliva all of the acetaldehyde"}]}, {"smiles": "N[C@H](CS)C(=O)O", "note": "[D-cysteine]", "values": [{"measurement": "elimination of acetaldehyde from saliva during smoking", "setting": "acetaldehyde from saliva", "result": "totally eliminates acetaldehyde"}]}]}
